# Assay results as given in PubChem BioAssay AID2060487 (Molecular Pharmacology Branch, DTP, NCI, 2025).
# System: 997537-175-T-J1-PDC complex spheroid viability
# Test: Anticancer human tumor 997537-175-T-J1-PDC patient-derived colon adenocarcinoma cell line growth inhibition [GQUAD]
# Details: for IC50: curve of first compound; for viability, T/C: stronger effect = lower value
# Outline: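 Viability of tumor cells grown as complex spheroids with endothelial and stromal cells, exposed to drug combinations. Top concentration at or near clinical Cmax (else 10 microM), diluted in half-log increments.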
# [1] = second compound 0.0316 µM, first compound 0.0316 µM
# [2] = second compound 0.0316 µM, first compound 0.1 µM
# [3] = second compound 0.0316 µM, first compound 0.316 µM
# [4] = second compound 0.0316 µM, first compound 1 µM
# [5] = second compound 0.0316 µM, first compound 3.16 µM
# [6] = second compound 0.0316 µM, first compound 10 µM
# [7] = second compound 0.1 µM, first compound 0.0316 µM
# [8] = second compound 0.1 µM, first compound 0.1 µM
# [9] = second compound 0.1 µM, first compound 0.316 µM
# [10] = second compound 0.1 µM, first compound 1 µM
# [11] = second compound 0.1 µM, first compound 3.16 µM
# [12] = second compound 0.1 µM, first compound 10 µM
# [13] = second compound 0.316 µM, first compound 0.0316 µM
# [14] = second compound 0.316 µM, first compound 0.1 µM
# [15] = second compound 0.316 µM, first compound 0.316 µM
# [16] = second compound 0.316 µM, first compound 1 µM
# [17] = second compound 0.316 µM, first compound 3.16 µM
# [18] = second compound 0.316 µM, first compound 10 µM
# [19] = second compound 1 µM, first compound 0.0316 µM
# [20] = second compound 1 µM, first compound 0.1 µM
# [21] = second compound 1 µM, first compound 0.316 µM
# [22] = second compound 1 µM, first compound 1 µM
# [23] = second compound 1 µM, first compound 3.16 µM
# [24] = second compound 1 µM, first compound 10 µM
# [25] = second compound 3.16 µM, first compound 0.0316 µM
# [26] = second compound 3.16 µM, first compound 0.1 µM
# [27] = second compound 3.16 µM, first compound 0.316 µM
# [28] = second compound 3.16 µM, first compound 1 µM
# [29] = second compound 3.16 µM, first compound 3.16 µM
# [30] = second compound 3.16 µM, first compound 10 µM
# [31] = second compound 10 µM, first compound 0.0316 µM
# [32] = second compound 10 µM, first compound 0.1 µM
# [33] = second compound 10 µM, first compound 0.316 µM
# [34] = second compound 10 µM, first compound 1 µM
# [35] = second compound 10 µM, first compound 3.16 µM
# [36] = second compound 10 µM, first compound 10 µM
# 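Further: spheroids exposed to the agents for 7 days.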
# 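Wherever viability, T/C is given: 100% = DMSO vehicle control viability.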
compound,measurement,setting,value
CC(C)(O)C1CCC(Nc2ccc3ncc(-c4cccc(C(F)(F)F)c4)n3n2)CC1 (stereo unspecified) + CN(C)c1ccc(Nc2c3ccc(NC(=O)CCN4CCCC4)cc3nc3cc(NC(=O)CCN4CCCC4)ccc23)cc1,IC50,second compound 0.0316 µM,2.03 µM
same,IC50,second compound 0.1 µM,1.82 µM
same,IC50,second compound 0.316 µM,1.85 µM
same,IC50,second compound 1 µM,2.23 µM
same,IC50,second compound 3.16 µM,1.45 µM
same,IC50,second compound 10 µM,2.02 µM
same,"viability, T/C",[1],99.5%
same,"viability, T/C",[2],108%
same,"viability, T/C",[3],88%
same,"viability, T/C",[4],65.8%
same,"viability, T/C",[5],41.1%
same,"viability, T/C",[6],26.1%
same,"viability, T/C",[7],83.8%
same,"viability, T/C",[8],89.8%
same,"viability, T/C",[9],78.2%
same,"viability, T/C",[10],58.9%
same,"viability, T/C",[11],38.2%
same,"viability, T/C",[12],45.8%
same,"viability, T/C",[13],85.2%
same,"viability, T/C",[14],78.5%
same,"viability, T/C",[15],78.2%
same,"viability, T/C",[16],75.3%
same,"viability, T/C",[17],27.9%
same,"viability, T/C",[18],20.4%
same,"viability, T/C",[19],61.4%
same,"viability, T/C",[20],91.5%
same,"viability, T/C",[21],79.2%
same,"viability, T/C",[22],81%
same,"viability, T/C",[23],30.4%
same,"viability, T/C",[24],44.9%
same,"viability, T/C",[25],64.5%
same,"viability, T/C",[26],85.5%
same,"viability, T/C",[27],79.4%
same,"viability, T/C",[28],54.5%
same,"viability, T/C",[29],44%
same,"viability, T/C",[30],36.7%
same,"viability, T/C",[31],87.8%
same,"viability, T/C",[32],96.4%
same,"viability, T/C",[33],95.9%
same,"viability, T/C",[34],70.5%
same,"viability, T/C",[35],37.2%
same,"viability, T/C",[36],22.6%
C=CC(=O)N1CCN(c2nc(=O)n(-c3c(C)ccnc3C(C)C)c3nc(-c4c(O)cccc4F)c(F)cc23)C(C)C1 (stereo unspecified) + Cc1cnc(CNC(=O)c2c(=O)c3ccc(N4CCCN(C)CC4)nc3n3c2sc2ccccc23)cn1,IC50,second compound 0.0316 µM,> 10 µM
same,IC50,second compound 0.1 µM,> 10 µM
same,IC50,second compound 0.316 µM,> 10 µM
same,IC50,second compound 1 µM,> 10 µM
same,IC50,second compound 3.16 µM,> 10 µM
same,IC50,second compound 10 µM,> 10 µM
same,"viability, T/C",[1],102%
same,"viability, T/C",[2],90.1%
same,"viability, T/C",[3],93.8%
same,"viability, T/C",[4],71.5%
same,"viability, T/C",[5],77%
same,"viability, T/C",[6],87.7%
same,"viability, T/C",[7],98.8%
same,"viability, T/C",[8],77.7%
same,"viability, T/C",[9],87.5%
same,"viability, T/C",[10],64.5%
same,"viability, T/C",[11],102%
same,"viability, T/C",[12],91.4%
same,"viability, T/C",[13],84.7%
same,"viability, T/C",[14],85%
same,"viability, T/C",[15],85.4%
same,"viability, T/C",[16],94.9%
same,"viability, T/C",[17],89.4%
same,"viability, T/C",[18],90.4%
same,"viability, T/C",[19],93.7%
same,"viability, T/C",[20],100%
same,"viability, T/C",[21],99%
same,"viability, T/C",[22],95%
same,"viability, T/C",[23],102%
same,"viability, T/C",[24],99.2%
same,"viability, T/C",[25],68.9%
same,"viability, T/C",[26],115%
same,"viability, T/C",[27],96.5%
same,"viability, T/C",[28],102%
same,"viability, T/C",[29],103%
same,"viability, T/C",[30],94.4%
same,"viability, T/C",[31],84.1%
same,"viability, T/C",[32],83.5%
same,"viability, T/C",[33],114%
same,"viability, T/C",[34],87.7%
same,"viability, T/C",[35],95.3%
same,"viability, T/C",[36],118%
C=CCn1c(=O)c2cnc(Nc3ccc(N4CCN(C)CC4)cc3)nc2n1-c1cccc(C(C)(C)O)n1 + Cc1cnc(CNC(=O)c2c(=O)c3ccc(N4CCCN(C)CC4)nc3n3c2sc2ccccc23)cn1,IC50,second compound 0.0316 µM,1.87 µM
same,IC50,second compound 0.1 µM,2.73 µM
same,IC50,second compound 0.316 µM,2.55 µM
same,IC50,second compound 1 µM,7.65 µM
same,IC50,second compound 3.16 µM,> 10 µM
same,IC50,second compound 10 µM,8.48 µM
same,"viability, T/C",[1],105%
same,"viability, T/C",[2],76.5%
same,"viability, T/C",[3],99%
same,"viability, T/C",[4],70.5%
same,"viability, T/C",[5],32.8%
same,"viability, T/C",[6],20.4%
same,"viability, T/C",[7],105%
same,"viability, T/C",[8],104%
same,"viability, T/C",[9],98.3%
same,"viability, T/C",[10],71.2%
same,"viability, T/C",[11],48.6%
same,"viability, T/C",[12],30.4%
same,"viability, T/C",[13],89%
same,"viability, T/C",[14],94.2%
same,"viability, T/C",[15],91.3%
same,"viability, T/C",[16],74%
same,"viability, T/C",[17],44.8%
same,"viability, T/C",[18],38.1%
same,"viability, T/C",[19],80.5%
same,"viability, T/C",[20],99.8%
same,"viability, T/C",[21],112%
same,"viability, T/C",[22],61.1%
same,"viability, T/C",[23],76%
same,"viability, T/C",[24],43.2%
same,"viability, T/C",[25],63.1%
same,"viability, T/C",[26],98.4%
same,"viability, T/C",[27],96%
same,"viability, T/C",[28],107%
same,"viability, T/C",[29],75.2%
same,"viability, T/C",[30],50.6%
same,"viability, T/C",[31],73.8%
same,"viability, T/C",[32],99.3%
same,"viability, T/C",[33],87.2%
same,"viability, T/C",[34],87%
same,"viability, T/C",[35],79.8%
same,"viability, T/C",[36],44.8%
